We go through six compounds from patent US20250339520A1, “COMPOSITIONS AND METHODS FOR USE IN KRAS-TARGETED THERAPIES FOR THE TREATMENT OF CANCER” (RUTGERS, THE STATE UNIVERSITY OF NEW JERSEY, priority 2024, published 2025).

Data set [1] deals with KPC PDAC cells. In words: Orthotopically transplanted KPC PDAC model with pancreatitis induction. The class given is in vivo, mouse. The procedure: (§1) For allograft or xenograft tumor models, human or mouse PDAC cells were transplanted orthotopically or subcutaneously into recipient C57BL/6 or nude mice at a concentration of 500,000 cells per injection, as specified in the figures. The cells were resuspended in Opti-MEM and combined with growth factor-reduced Matrigel (Corning) at a 1:1 ratio.
(§2) For bioluminescence imaging, each mouse received a 100 L injection of D-Luciferin (15 mg/mL, i.p., Perkin Elmer). After a 10-minute interval, mice were imaged using the IVIS Spectrum Imaging System, and images were acquired and analyzed using Living Image 4.3 software.

The subject of data set [2] is iKPC PDAC cells. In words: Cancer spheroid formation, TGFβ-driven KRAS* bypass. The class given is cell-based, mouse. The procedure: (§3) Human cell lines MIA PaCa-2 and Panc 04.03 were purchased from the American Type Culture Collection (ATCC) and cultured in DMEM supplemented with 10% FBS and RPMI supplemented with 15% FBS and 20 Units/ml human recombinant insulin, respectively. Mouse PDAC cells were isolated from spontaneous tumors developed in iKPC or KPC mice. KPC cell lines were sustained in RPMI (Gibco) with 10% FBS (Gibco), while iKPC cell lines were cultured in RPMI with 10% Tet-approved FBS (Gibco) and doxycycline (VWR, […]). Escaper tumor cell lines were maintained in RPMI with 10% Tet-approved FBS (Gibco). For cancer spheroid culture, cells were mixed with 50 L growth factor-reduced Matrigel (Corning) and plated in 24-well low-attachment cell culture plates (Nunc). Medium was added on top of the solidified Matrigel. We monitored both spheroid size and number for spheroid growth assays. For counting spheroid numbers, we used a cut-off of 100 m in diameter or specified, depending on the time and cell type. For measuring spheroid size, ImageJ was used. Monthly mycoplasma detection (Lonza) was performed to ensure the absence of contamination.

A further data set concerns AsPC-1. In words: Cancer spheroid formation under KRASi, SMAD4-deficient cells. Particulars: for Response of spheroid formation to TGFβ1 or TGFβRi: SMAD4-deficient, under G12Di MRTX1133, TGFβ 0.5 ng/ml, SB505124 1 μM. Type of data set: cell-based, human.
The subject of data set [3] is KPC [1860], Mia PaCa-2, and Panc 04.03 PDAC cells. In words: Cancer spheroid formation under KRASi. The class given is cell-based, mouse and human. The procedure:
as §3

The subject of data set [4] is KRAS*-independent escaper tumor cell lines from iKPC mice. In words: KRAS*-independent escaper spheroid growth. Type of data set: cell-based, mouse. Particulars: SB505124 3 μM; hybrid or QM-like phenotype. The procedure:
as §3

In a further data set the test system is MIA PaCa-2. In words: MIA PaCa-2 orthotopic xenograft model. The class given is in vivo.
Source text: as §1

Data set [5] relates to KPC PDAC cells. In words: KPC transplanted (allograft) model, KRN2 and MRTX1133. The class given is in vivo. The protocol:
as §1, §2

The test system of data set [6] is KRAS*-independent escaper tumor cells E725. The experiment in a line: Escaper tumor growth, E725 cells subcutaneous in nude mice. The class given is in vivo, mouse. Particulars: KRN2 3 mg/kg QD vs vehicle; day 28.
Source text: as §1

Data set [7] concerns iKPC spheroids. The experiment in a line: RNA-seq / GSEA in TGFβ-treated, KRAS*-depleted iKPC spheroids. Type of data set: cell-based, mouse. Particulars: inhibition of NFAT5 by KRN2. The procedure:
(§4) RNA extraction from 2-D or 3-D cultured cell samples was conducted using the RNA Extraction Kit from Qiagen. Matrigel-based 3-D cells were isolated using Cell Recovery Solution from Corning. RNA concentration was assessed using NanoDrop 2000. The RNA samples were either sent for RNA-seq analysis to the Genomic Center at Rutgers or Genewiz (Azenta), or reverse transcribed for qRT-PCR analysis. The preparation of cDNA utilized 5× All-In-One RT MasterMix from Applied Biological Materials, and the PCR reactions were prepared with SYBR Green PCR Master Mix from Applied Biosystems or Bio-Rad. qRT-PCR was executed on the CFX Opus 96 (Bio-Rad), with statistical analysis conducted using GraphPad Prism. For mRNA sequencing, the parameters were NGS-75 nt Paired End, utilizing the Illumina Next Generation Sequencing instrument.
GSEA was performed using GSEA software (4.3.2).

Another data set concerns NFAT5. The experiment in a line: Western blot of NFAT5 expression under KRN2. The class given is cell-based. Particulars: PDAC cells, dose-dependent western blot. The procedure: (§5) Antibody information can be found in Table 2. Western blot analysis, IP, co-IP, and IHC staining were conducted following standard protocols. Human TMA slides were purchased from Biomax. Cell fractionation and Masson's Trichrome Staining were carried out using commercial kits, adhering to manufacturers' protocols. MS analysis of proteins pulled down by endogenous SMAD2, SMAD3, SMAD4, NFAT5, and IgG was performed by the Proteomics Core Facility at Rutgers New Jersey Medical School. Specifically, IP samples were subjected to SDS-PAGE separation. Each sample's gel lane was excised for in-gel trypsin digestion, and the resulting peptides were analyzed using LC-MS/MS on an Orbitrap Fusion Lumos Tribrid mass spectrometer coupled with the Ultimate 3000 nano-LC system (Thermo Scientific). MS/MS spectra were searched against the UniProt mouse database (55,336 sequences, downloaded 8/30/2021) using the Sequest search engine through the Proteome Discoverer platform (version 2.4) with a false discovery rate less than 1% for both proteins and peptides. Protein abundance ratios were determined using the Label-Free Quantitation (LFQ) method.

Data set [8] concerns iKPC spheroids. The experiment in a line: Western blot of S100A4, NFAT5 and EMT TFs in iKPC cells/spheroids. Type of data set: cell-based, mouse. Particulars: TGFβ. The procedure: as §5
The test system of data set [9] is iKPC PDAC cells. The experiment in a line: Gene expression changes in iKPC cells post TGFβ treatment. Type of data set: cell-based, mouse. The procedure: as §4
A further data set relates to S100a4 promoter. In words: Luciferase reporter assay under the S100a4 promoter. Type of data set: cell-based, mouse. Particulars: KRAS*-depleted iKPC PDAC cells. The procedure: Mouse S100a4 promoter was cloned into pGL4.12[iluc2CP] vector (Promega). Renilla luciferase vector (Promega) was used as the internal control. pGL4.12 vector and Renilla luciferase vector were co-transfected into iKPC PDAC cells using Lipofectamine 2000 (Invitrogen). After 24 hours, the medium was replaced, and cells were subjected to various treatments for an additional 24 hours. Subsequently, cells were collected for luciferase reporter assay using the Dual-Luciferase Reporter Assay Kit (Promega) according to the manufacturer's instructions. The firefly luciferase signal was normalized to Renilla luciferase prior to comparison among different treatment groups.

Another data set concerns iKPC mice. In words: Pancreatitis-induced spontaneous tumor relapse in iKPC mice. Particulars: CAE 100 μg/kg after dox withdrawal (KRAS* off); less than or around a year after treatment; control mice remained tumor-free. The class given is in vivo, mouse. The protocol: The iKPC and KPC PDAC mouse models were established and described previously^7,19. They were bred in pure C57BL/6 background. Doxycycline (dox) water (2 mg/mL, ad libitum) was administrated at 4-6 weeks of mouse age to activate transgenic KRAS^G12D expression in iKPC mice. The C57BL/6 mice and nude mice of both sexes were purchased from the Jackson Laboratory and employed to ensure matching sexes of the cell lines.
For the induction of spontaneous tumor relapse in iKPC mice, the withdrawal of dox water was performed to cease KRAS* expression when the tumor diameter reached approximately 1 cm.

For `C#Cc1c(F)ccc2cc(O)cc(-c3ncc4c(N5CC6CCC(C5)N6)nc(OC[C@@]56CCCN5C[C@H](F)C6)nc4c3F)c12` [MRTX1133], in the data set on KPC PDAC cells [1] (MRTX1133 10 mg/kg BID + CAE 100 μg/kg), the “Tumor growth under G12Di with pancreatitis induction” value is recorded as “leads to resistance”. Also, the “Tumor growth, G12Di vs vehicle” value with KPC PDAC cells [1] (MRTX1133 10 mg/kg, BID) was “significantly reduces tumor growth”.

Regarding “recombinant S100A4 protein: recombinant mouse S100A4 (R&D) added to the culture media”, the “Rescue of TGFβ-induced, KRAS*-independent cancer spheroid growth” value with iKPC PDAC cells [2] (added to culture media after NFAT5 inhibition (KRN2 1 μM) or knockdown of Nfat5 or S100a4) is “rescued TGFβ-induced, KRAS*-independent cancer spheroid growth”.

`Cc1cccc(-c2[nH]c(C(C)(C)C)nc2-c2ccc3c(c2)OCO3)n1` [SB505124]: in the data set with AsPC-1, the “Response of spheroid formation to TGFβ1 or TGFβRi” value is reported as “did not exhibit a response”. The “Cancer spheroid formation, TGFβRi combined with KRASi” value in [3] (SB505124 3 μM with MRTX1133 (KPC, Panc 04.03) or ARS-1620 (MIA PaCa-2)) is “eradication of cancer spheroids”. The “Sensitivity of escaper spheroids to TGFβRi” value in data set [4] is “hypersensitivity”.

With `COc1ccc2c(Cc3ccccc3F)c3[n+](cc2c1OC)CCc1cc2c(cc1-3)OCO2.[Cl-]` [KRN2], the “Human xenograft tumor growth” value in the data set with MIA PaCa-2 (KRN2 3 mg/kg QD with G12Ci MRTX849 100 mg/kg QD, day 28) was “reduction of human xenograft tumor growth cooperatively with KRASi”. Besides, the “Systemic toxicity (mouse body weight)” value with MIA PaCa-2 (xenograft model, during treatment) is “minimal systemic toxicities”. In the data set on iKPC PDAC cells [2] (KRN2 1 μM, TGFβ 0.5 ng/ml, three iKPC cell lines), the “TGFβ-driven KRAS* bypass (spheroid formation)” value is “impairment of TGFβ-driven KRAS* bypass”. Further, the “Mouse allograft tumor growth” value in the data set on KPC PDAC cells [5] (KRN2 3 mg/kg QD in combination with MRTX1133 10 mg/kg QD) is given as “inhibition of mouse allograft tumor growth in combination with KRASi”. Further, in the data set on KPC PDAC cells [5] (KRN2 monotherapy 3 mg/kg QD, immune-competent mice), the Mouse survival entry is “prolonged mouse survival”. Further, the “Tumor differentiation (H&E)” value in the data set with KPC PDAC cells [5] (KRN2 vs vehicle control) is reported as “induced tumor differentiation”. Besides, the “Systemic toxicity (mouse body weight)” value with KPC PDAC cells [5] (allograft model, during treatment) was “minimal systemic toxicities”. The “KRASi persistent cancer spheroid formation, SMAD4-deficient cells” value in the data set with AsPC-1 (KRN2 0.3 μM + MRTX1133 0.3 μM) is reported as “excluding SMAD4-deficient cancer spheroid formation”. Moreover, the “KRASi persistent cancer spheroid formation” value in [3] (KRN2 1 μM + MRTX1133 0.03 μM (KPC), KRN2 0.3 μM + ARS-1620 5 μM (MIA PaCa-2)) is given as “attenuation of KRASi persistent cancer spheroid formation”. Moreover, in data set [6], the “Escaper tumor growth in vivo” value is “restriction of escaper tumor growth in vivo”. Moreover, in the data set with iKPC spheroids [7], the “Gene sets upregulated (GSEA)” value was “upregulating genes associated with fatty acid metabolism and mTORC1 signaling”; the “Gene signatures suppressed (GSEA)” value was “suppressed EMT and NFxB gene signatures”. The “Chronic pancreatitis-induced KRASi resistance” value in the data set with KPC PDAC cells [1] (MRTX1133 10 mg/kg BID + CAE 100 μg/kg + KRN2 3 mg/kg QD, KPC 1860, day 21) was “blockage of chronic pancreatitis-induced KRASi resistance”. In addition, the “Concentration at which Nfat5 expression is suppressed” value with NFAT5 is given as “higher than 0.3 μM”.

For the compound “TGFβ1: recombinant human and mouse TGFβ1 (Peprotech)”, the NFAT5 protein level entry in the data set on iKPC spheroids [8] was “upregulates NFAT5”. The S100A4 protein level result in the data set with iKPC spheroids [8] (cancer spheroids) was “upregulation of S100A4”. Also, the “KRAS* bypass in spheroid assays” value in the data set on iKPC PDAC cells [2] (TGFβ1 treatment, KRAS* off) was “efficiently promoted several iKPC PDAC cell lines to bypass KRAS*”. Besides, in the data set on iKPC PDAC cells [2] (TGFβ1 treatment, cell lines with higher Cdkn2a and Cdkn2b expression), the “KRAS* bypass in spheroid assays, iKPC cell lines 251, 276” value is given as “unable to bypass KRAS*”. Also, in the data set on AsPC-1, the “Response of spheroid formation to TGFβ1 or TGFβRi” value is listed as “did not exhibit a response”. Besides, the Ccl2 expression elevation entry in the data set with iKPC PDAC cells [9] (TGFβ treatment, KRAS*-depleted iKPC PDAC cells) is “more than 700 fold”. Also, in the data set with iKPC PDAC cells [9] (TGFβ, KRAS*-depleted iKPC spheroids), the S100a4 expression entry is recorded as “upregulated”. Further, the “Formation of cancer spheroids resistant to KRASi” value in [3] (TGFβ 0.5 ng/ml with MRTX1133 or ARS-1620, cells with intact TGFβ pathway) is recorded as “actively promoted the formation of cancer spheroids resistant to KRASi”. The “S100a4 promoter luciferase activity under TGFβ” value in the data set with S100a4 promoter is recorded as “activated S100a expression”.

For the compound caerulein, in the data set on KPC PDAC cells [1] (CAE 100 μg/kg, C57BL/6 mice, BLI, tumor weight, tumor volume), the “Tumor growth, CAE vs vehicle control” value is “promotes KPC PDAC tumor growth”. For the same compound, the “Tumor morphology (H&E)” value in the data set on KPC PDAC cells [1] (CAE;G12Di-treated tumors relative to vehicle;G12Di controls) is “lost the ductal-like phenotype and were more undifferentiated”. The “Tumor progression, CAE;G12Di vs vehicle;G12Di” value in the data set with KPC PDAC cells [1] (independent study, MRTX1133 10 mg/kg BID, CAE 100 μg/kg) is on record as “significantly faster tumor progression”. Moreover, the “SMAD3 phosphorylation and EMT transcription factors in collected tumors (western blot)” value in the data set on KPC PDAC cells [1] (tumors under MRTX1133) is “induced SMAD3 phosphorylation and the upregulation of EMT transcription factors (TFs) such as SNAI2, ZEB1, and ZEB2”. Moreover, in the data set on iKPC mice, the “CAE-treated mice that developed escaper tumors” value is “at least 36%”.
